Experimental data reported in ChEMBL document CHEMBL3045868, “Synthesis and antibacterial activities of para-alkoxy phenyl--ketoaldehyde derivatives” (Med Chem Res, 2013).
Values after ≈ are worked out from the molar mass of the structure shown. Each block holds one molecule with its values, some of them ahead of it.

Legend:
Helicobacter pylori [1] = assay: Antibacterial activity against Helicobacter pylori 05-4 assessed as growth inhibition after 16 to 18 hr NCCLS agar dilution method; type: functional, 05-Apr
Helicobacter pylori [2] = assay: Antibacterial activity against Helicobacter pylori 06-6 assessed as growth inhibition after 16 to 18 hr NCCLS agar dilution method; type: functional
Staphylococcus aureus [3] = assay: Antibacterial activity against Staphylococcus aureus ATCC 25923 assessed as growth inhibition after 16 to 18 hr by NCCLS agar dilution method; type: functional
Helicobacter pylori [4] = assay: Antibacterial activity against Helicobacter pylori 05-14 assessed as growth inhibition after 16 to 18 hr NCCLS agar dilution method; type: functional
Helicobacter pylori [5] = assay: Antibacterial activity against Helicobacter pylori 06-8 assessed as growth inhibition after 16 to 18 hr NCCLS agar dilution method; type: functional
Pseudomonas aeruginosa = assay: Antibacterial activity against Pseudomonas aeruginosa ATCC 27853 assessed as growth inhibition after 16 to 18 hr NCCLS agar dilution method; type: functional
Helicobacter pylori [6] = assay: Antibacterial activity against Helicobacter pylori 06-1 assessed as growth inhibition after 16 to 18 hr NCCLS agar dilution method; type: functional
Helicobacter pylori [7] = assay: Antibacterial activity against Helicobacter pylori 05-9 assessed as growth inhibition after 16 to 18 hr NCCLS agar dilution method; type: functional
Helicobacter pylori [8] = assay: Antibacterial activity against Helicobacter pylori assessed as growth inhibition after 16 to 18 hr NCCLS agar dilution method; type: functional
Helicobacter pylori [9] = assay: Antibacterial activity against Helicobacter pylori 05-12 assessed as growth inhibition after 16 to 18 hr NCCLS agar dilution method; type: functional
Helicobacter pylori [10] = assay: Antibacterial activity against Helicobacter pylori 06-4 assessed as growth inhibition after 16 to 18 hr NCCLS agar dilution method; type: functional
Helicobacter pylori [11] = assay: Antibacterial activity against Helicobacter pylori 06-7 assessed as growth inhibition after 16 to 18 hr NCCLS agar dilution method; type: functional
Helicobacter pylori [12] = assay: Antibacterial activity against Helicobacter pylori 06-3 assessed as growth inhibition after 16 to 18 hr NCCLS agar dilution method; type: functional
Helicobacter pylori [13] = assay: Antibacterial activity against Helicobacter pylori 05-3 assessed as growth inhibition after 16 to 18 hr NCCLS agar dilution method; type: functional
Escherichia coli = assay: Antibacterial activity against Escherichia coli ATCC 25922 assessed as growth inhibition after 16 to 18 hr NCCLS agar dilution method; type: functional
Helicobacter pylori [14] = assay: Antibacterial activity against Helicobacter pylori 05-5 assessed as growth inhibition after 16 to 18 hr NCCLS agar dilution method; type: functional
Helicobacter pylori [15] = assay: Antibacterial activity against Helicobacter pylori 05-2 assessed as growth inhibition after 16 to 18 hr NCCLS agar dilution method; type: functional
Helicobacter pylori [16] = assay: Antibacterial activity against Helicobacter pylori 06-2 assessed as growth inhibition after 16 to 18 hr NCCLS agar dilution method; type: functional
Helicobacter pylori [17] = assay: Antibacterial activity against Helicobacter pylori 06-5 assessed as growth inhibition after 16 to 18 hr NCCLS agar dilution method; type: functional
Helicobacter pylori [18] = assay: Antibacterial activity against Helicobacter pylori 05-1 assessed as growth inhibition after 16 to 18 hr NCCLS agar dilution method; type: functional
Helicobacter pylori [19] = assay: Antibacterial activity against Helicobacter pylori ATCC 11637 assessed as growth inhibition after 16 to 18 hr NCCLS agar dilution method; type: functional
Staphylococcus aureus [20] = assay: Bactericidal activity against methicillin-resistant Staphylococcus aureus isolate 1 after 24 hr; type: functional; details: isolate 1, 24 h
Staphylococcus aureus [21] = assay: Antibacterial activity against methicillin-resistant Staphylococcus aureus assessed as growth inhibition after 16 to 18 hr by NCCLS agar dilution method; type: functional
Staphylococcus aureus [22] = assay: Bactericidal activity against Staphylococcus aureus clinical isolate 10 after 24 hr; type: functional; details: isolate 10, 24 h
Staphylococcus aureus [23] = assay: Bactericidal activity against Staphylococcus aureus clinical isolate 2 after 24 hr; type: functional; details: isolate 2, 24 h
Staphylococcus aureus [24] = assay: Antibacterial activity against Staphylococcus aureus clinical isolate 7 assessed as growth inhibition after 16 to 18 hr by NCCLS agar dilution method; type: functional
Staphylococcus aureus [25] = assay: Bactericidal activity against methicillin-resistant Staphylococcus aureus isolate 4 after 24 hr; type: functional; details: isolate 4, 24 h
Staphylococcus aureus [26] = assay: Bactericidal activity against Staphylococcus aureus clinical isolate 4 after 24 hr; type: functional; details: isolate 4, 24 h
Staphylococcus aureus [27] = assay: Antibacterial activity against Staphylococcus aureus clinical isolate 1 assessed as growth inhibition after 16 to 18 hr by NCCLS agar dilution method; type: functional
Staphylococcus aureus [28] = assay: Antibacterial activity against Staphylococcus aureus clinical isolate 4 assessed as growth inhibition after 16 to 18 hr by NCCLS agar dilution method; type: functional
Staphylococcus aureus [29] = assay: Antibacterial activity against methicillin-resistant Staphylococcus aureus isolate 1 assessed as growth inhibition after 16 to 18 hr by NCCLS agar dilution method; type: functional
Staphylococcus aureus [30] = assay: Bactericidal activity against Staphylococcus aureus clinical isolate 9 after 24 hr; type: functional; details: isolate 9, 24 h
Staphylococcus aureus [31] = assay: Antibacterial activity against methicillin-resistant Staphylococcus aureus isolate 4 assessed as growth inhibition after 16 to 18 hr by NCCLS agar dilution method; type: functional
Staphylococcus aureus [32] = assay: Antibacterial activity against Staphylococcus aureus clinical isolate 9 assessed as growth inhibition after 16 to 18 hr by NCCLS agar dilution method; type: functional
Staphylococcus aureus [33] = assay: Bactericidal activity against methicillin-resistant Staphylococcus aureus isolate 5 after 24 hr; type: functional; details: isolate 5, 24 h
Staphylococcus aureus [34] = assay: Antibacterial activity against methicillin-resistant Staphylococcus aureus isolate 5 assessed as growth inhibition after 16 to 18 hr by NCCLS agar dilution method; type: functional
Staphylococcus aureus [35] = assay: Bactericidal activity against methicillin-resistant Staphylococcus aureus after 24 hr; type: functional
Staphylococcus aureus [36] = assay: Antibacterial activity against Staphylococcus aureus clinical isolate 8 assessed as growth inhibition after 16 to 18 hr by NCCLS agar dilution method; type: functional
Staphylococcus aureus [37] = assay: Bactericidal activity against Staphylococcus aureus clinical isolate 6 after 24 hr; type: functional; details: isolate 6, 24 h
Staphylococcus aureus [38] = assay: Bactericidal activity against methicillin-resistant Staphylococcus aureus isolate 3 after 24 hr; type: functional; details: isolate 3, 24 h
Staphylococcus aureus [39] = assay: Antibacterial activity against Staphylococcus aureus clinical isolate 10 assessed as growth inhibition after 16 to 18 hr by NCCLS agar dilution method; type: functional
Staphylococcus aureus [40] = assay: Antibacterial activity against Staphylococcus aureus clinical isolate 3 assessed as growth inhibition after 16 to 18 hr by NCCLS agar dilution method; type: functional
Staphylococcus aureus [41] = assay: Bactericidal activity against Staphylococcus aureus clinical isolate 8 after 24 hr; type: functional; details: isolate 8, 24 h
Staphylococcus aureus [42] = assay: Bactericidal activity against methicillin-resistant Staphylococcus aureus isolate 2 after 24 hr; type: functional; details: isolate 2, 24 h
Staphylococcus aureus [43] = assay: Antibacterial activity against Staphylococcus aureus clinical isolate 5 assessed as growth inhibition after 16 to 18 hr by NCCLS agar dilution method; type: functional
Staphylococcus aureus [44] = assay: Bactericidal activity against Staphylococcus aureus clinical isolate 1 after 24 hr; type: functional; details: isolate 1, 24 h
Staphylococcus aureus [45] = assay: Antibacterial activity against Staphylococcus aureus clinical isolate assessed as growth inhibition after 16 to 18 hr by NCCLS agar dilution method; type: functional
Staphylococcus aureus [46] = assay: Bactericidal activity against Staphylococcus aureus clinical isolate 5 after 24 hr; type: functional; details: isolate 5, 24 h
Staphylococcus aureus [47] = assay: Antibacterial activity against Staphylococcus aureus clinical isolate 6 assessed as growth inhibition after 16 to 18 hr by NCCLS agar dilution method; type: functional
Staphylococcus aureus [48] = assay: Antibacterial activity against methicillin-resistant Staphylococcus aureus isolate 3 assessed as growth inhibition after 16 to 18 hr by NCCLS agar dilution method; type: functional
Staphylococcus aureus [49] = assay: Bactericidal activity against Staphylococcus aureus clinical isolate 7 after 24 hr; type: functional; details: isolate 7, 24 h
Staphylococcus aureus [50] = assay: Bactericidal activity against Staphylococcus aureus clinical isolate 3 after 24 hr; type: functional; details: isolate 3, 24 h
Staphylococcus aureus [51] = assay: Antibacterial activity against methicillin-resistant Staphylococcus aureus isolate 2 assessed as growth inhibition after 16 to 18 hr by NCCLS agar dilution method; type: functional
Staphylococcus aureus [52] = assay: Antibacterial activity against Staphylococcus aureus clinical isolate 2 assessed as growth inhibition after 16 to 18 hr by NCCLS agar dilution method; type: functional

MIC (Helicobacter pylori [1]): > 128 µg/mL | MIC (Helicobacter pylori [2]): 64 µg/mL (≈ 331 µM) | MIC (Staphylococcus aureus [3]): 4 µg/mL (≈ 20.7 µM) | MIC (Helicobacter pylori [4]): > 128 µg/mL | MIC (Helicobacter pylori [5]): > 128 µg/mL | MIC (Pseudomonas aeruginosa): > 64 µg/mL | MIC (Helicobacter pylori [6]): 64 µg/mL (≈ 331 µM) | MIC (Helicobacter pylori [7]): > 128 µg/mL | MIC50 (Helicobacter pylori [8]): > 128 µg/mL | MIC90 (Helicobacter pylori [8]): > 128 µg/mL | MIC (Helicobacter pylori [9]): > 128 µg/mL | MIC (Helicobacter pylori [10]): > 128 µg/mL | MIC (Helicobacter pylori [11]): 64 µg/mL (≈ 331 µM) | MIC (Helicobacter pylori [12]): 64 µg/mL (≈ 331 µM) | MIC (Helicobacter pylori [13]): > 128 µg/mL | MIC (Escherichia coli): > 64 µg/mL | MIC (Helicobacter pylori [14]): > 128 µg/mL | MIC (Helicobacter pylori [15]): > 128 µg/mL | MIC (Helicobacter pylori [16]): > 128 µg/mL | MIC (Helicobacter pylori [17]): 64 µg/mL (≈ 331 µM) | MIC (Helicobacter pylori [18]): > 128 µg/mL | MIC (Helicobacter pylori [19]): 64 µg/mL (≈ 331 µM)
Structure (SMILES): COc1ccc(C(=O)C/C=N/O)cc1

MIC (Helicobacter pylori [1]): > 128 µg/mL | MIC (Helicobacter pylori [2]): 128 µg/mL (≈ 509 µM) | MIC (Staphylococcus aureus [3]): > 64 µg/mL | MIC (Helicobacter pylori [4]): > 128 µg/mL | MIC (Helicobacter pylori [5]): > 128 µg/mL | MIC (Pseudomonas aeruginosa): > 64 µg/mL | MIC (Helicobacter pylori [6]): > 128 µg/mL | MIC (Helicobacter pylori [7]): > 128 µg/mL | MIC50 (Helicobacter pylori [8]): > 128 µg/mL | MIC90 (Helicobacter pylori [8]): > 128 µg/mL | MIC (Helicobacter pylori [9]): > 128 µg/mL | MIC (Helicobacter pylori [10]): > 128 µg/mL | MIC (Helicobacter pylori [11]): 128 µg/mL (≈ 509 µM) | MIC (Helicobacter pylori [12]): > 128 µg/mL | MIC (Helicobacter pylori [13]): > 128 µg/mL | MIC (Escherichia coli): > 64 µg/mL | MIC (Helicobacter pylori [14]): > 128 µg/mL | MIC (Helicobacter pylori [15]): > 128 µg/mL | MIC (Helicobacter pylori [16]): > 128 µg/mL | MIC (Helicobacter pylori [17]): > 128 µg/mL | MIC (Helicobacter pylori [18]): > 128 µg/mL | MIC (Helicobacter pylori [19]): > 128 µg/mL
Structure (SMILES): COc1ccc(C(=O)C/C=N/NC(N)=S)cc1

Structure (SMILES): C[C@H]1COc2c(N3CCN(C)CC3)c(F)cc3c(=O)c(C(=O)O)cn1c23.C[C@H]1COc2c(N3CCN(C)CC3)c(F)cc3c(=O)c(C(=O)O)cn1c23.O [LEVOFLOXACIN]
MBC (Staphylococcus aureus [20]): > 16 µg/mL | MIC50 (Staphylococcus aureus [21]): 16 µg/mL | MIC90 (Staphylococcus aureus [21]): > 16 µg/mL | MBC (Staphylococcus aureus [22]): 0.5 µg/mL | MIC (Staphylococcus aureus [3]): 0.25 µg/mL | MBC (Staphylococcus aureus [23]): 0.5 µg/mL | MIC (Pseudomonas aeruginosa): 0.5 µg/mL | MIC (Staphylococcus aureus [24]): 0.25 µg/mL | MBC (Staphylococcus aureus [25]): > 16 µg/mL | MBC (Staphylococcus aureus [26]): 0.5 µg/mL | MIC (Staphylococcus aureus [27]): 0.25 µg/mL | MIC (Staphylococcus aureus [28]): 0.25 µg/mL | MIC (Staphylococcus aureus [29]): 8 µg/mL | MBC (Staphylococcus aureus [30]): 0.5 µg/mL | MIC (Staphylococcus aureus [31]): 16 µg/mL | MIC (Staphylococcus aureus [32]): 0.25 µg/mL | MBC (Staphylococcus aureus [33]): > 16 µg/mL | MIC (Staphylococcus aureus [34]): > 16 µg/mL | MBC50 (Staphylococcus aureus [35]): >16 µg/mL | MBC90 (Staphylococcus aureus [35]): >16 µg/mL | MIC (Staphylococcus aureus [36]): 0.25 µg/mL | MBC (Staphylococcus aureus [37]): 0.5 µg/mL | MBC (Staphylococcus aureus [38]): > 16 µg/mL | MIC (Staphylococcus aureus [39]): 0.5 µg/mL | MIC (Staphylococcus aureus [40]): 0.25 µg/mL | MIC (Escherichia coli): 0.025 µg/mL | MBC (Staphylococcus aureus [41]): 0.25 µg/mL | MBC (Staphylococcus aureus [42]): > 16 µg/mL | MIC (Staphylococcus aureus [43]): 0.125 µg/mL | MBC (Staphylococcus aureus [44]): 0.25 µg/mL | MIC50 (Staphylococcus aureus [45]): 0.25 µg/mL | MIC90 (Staphylococcus aureus [45]): 0.5 µg/mL | MBC (Staphylococcus aureus [46]): 0.25 µg/mL | MIC (Staphylococcus aureus [47]): 0.5 µg/mL | MIC (Staphylococcus aureus [48]): 16 µg/mL | MBC (Staphylococcus aureus [49]): 0.25 µg/mL | MBC (Staphylococcus aureus [50]): 0.5 µg/mL | MIC (Staphylococcus aureus [51]): 8 µg/mL | MIC (Staphylococcus aureus [52]): 0.5 µg/mL
